Results: ChEMBL document CHEMBL1155481, “N-Hydroxybenzimidazole inhibitors of ExsA MAR transcription factor in Pseudomonas aeruginosa: In vitro anti-virulence activity and metabolic stability” (Bioorg Med Chem Lett, 2010)

Key:
[1] = target: T1, HTH-type transcriptional regulator ExsA (Pseudomonas aeruginosa (strain ATCC 15692 / PAO1 / 1C / PRS 101 / LMG12228), UniProt P26993); assay: Inhibition of Pseudomonas aeruginosa PAO1 ExsA DNA binding activity
T1 sequence (P26993 whole entry): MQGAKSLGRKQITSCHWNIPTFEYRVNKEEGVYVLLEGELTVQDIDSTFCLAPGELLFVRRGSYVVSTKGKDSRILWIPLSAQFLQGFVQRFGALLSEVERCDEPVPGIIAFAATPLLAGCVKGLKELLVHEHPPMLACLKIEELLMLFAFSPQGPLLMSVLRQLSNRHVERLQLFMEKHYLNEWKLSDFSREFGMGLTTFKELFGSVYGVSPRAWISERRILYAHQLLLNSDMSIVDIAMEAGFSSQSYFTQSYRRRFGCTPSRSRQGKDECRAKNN

J774.A1 = assay: Cytoprotective activity against Pseudomonas aeruginosa-induced cytotoxicity in mouse J774A1 cells assessed as LDH release at 100 uM; format: functional
[2] = Chemical stability of the compound; format: physicochemical
[3] = target: T1, HTH-type transcriptional regulator ExsA; assay: Inhibition of Pseudomonas aeruginosa 388 ExsA DNA binding activity
Liver microsomes = assay: Metabolic stability in human liver microsome; format: ADME

Structure (SMILES) | IC50 [1] | Activity (J774.A1) | Stability [2] | IC50 [3] | Stability (Liver microsomes)
CSc1ccc(/C=C/C(=O)Nc2ccc(-c3nc4ccc([N+](=O)[O-])cc4n3O)cc2)cc1 | 10.4 µM | >100% | Stable | – | –
CSc1ccc(/C=C/C(=O)Nc2ccc(-c3nc4ccc([N+](=O)[O-])cc4n3O)cc2)cn1 | 6.9 µM | 52.7% | Stable | – | –
CC(=O)c1ccc(/C=C/C(=O)Nc2ccc(-c3nc4c(CC(=O)O)cc([N+](=O)[O-])cc4n3O)cc2)cc1 | 3.7 µM | 65.4% | Stable | – | –
CSc1ccc(/C=C/C(=O)Nc2ccc(-c3nc4ccc(C#N)cc4n3O)cc2)cn1 | 3.5 µM | 46.6% | Stable | – | –
CC(=O)c1ccc(/C=C/C(=O)N(CC(N)=O)c2ccc(-c3nc4ccc([N+](=O)[O-])cc4n3O)cc2)cc1 | > 47.5 µM | – | Stable | – | –
CC(=O)c1ccc(/C=C/C(=O)N(CC(N)=O)c2ccc(-c3nc4ccc(C#N)cc4n3O)cc2)cc1 | > 49 µM | – | Stable | – | –
CC(=O)c1ccc(/C=C/C(=O)N(CC(=O)O)c2ccc(-c3nc4ccc(C#N)cc4n3O)cc2)cc1 | > 51 µM | – | Stable | – | –
CC(=O)c1ccc(/C=C/C(=O)Nc2ccc(-c3nc4c(CC(=O)O)cc([N+](=O)[O-])cc4n3O)cc2)cn1 | 4.6 µM | 33.1% | Stable | – | –
O=C(/C=C/c1ccc(C(O)(O)C(F)(F)F)cc1)Nc1ccc(-c2nc3ccc([N+](=O)[O-])cc3n2O)cc1 | > 100 µM | – | Stable | – | –
CSc1ccc(/C=C/C(=O)Nc2ccc(-c3nc4ccc(C#N)cc4n3O)cc2)cc1 | 7.3 µM | >100% | Stable | – | –
CC(=O)c1ccc(/C=C/C(=O)Nc2ccc(-c3nc4ccc([N+](=O)[O-])cc4n3O)cc2)cn1 | – | 12.1% | Stable | 7.5 µM | –
CC(=O)c1ccc(/C=C/C(=O)Nc2ccc(-c3nc4ccc([N+](=O)[O-])cc4n3O)cc2)cc1 | – | 22.4% | Stable | 3 µM | Stable
CC(=O)c1ccc(/C=C/C(=O)Nc2ccc(-c3nc4ccc(C#N)cc4n3O)cc2)cc1 | – | 19.2% | Stable | 13 µM | Stable
O=C(/C=C/c1ccc(C(F)(F)F)nc1)Nc1ccc(-c2nc3ccc([N+](=O)[O-])cc3n2O)cc1 | 6.7 µM | 78.5% | Stable | – | –
O=C(/C=C/c1ccc(-n2ccnc2)nc1)Nc1ccc(-c2nc3ccc([N+](=O)[O-])cc3n2O)cc1 | 31.2 µM | – | Stable | – | –
CN(C)c1ccc(/C=C/C(=O)Nc2ccc(-c3nc4ccc([N+](=O)[O-])cc4n3O)cc2)cn1 | > 100 µM | – | Stable | – | –
O=C(/C=C/c1ccc(F)cc1)Nc1ccc(-c2nc3ccc([N+](=O)[O-])cc3n2O)cc1 | – | – | – | – | Stable
